Measured values published in the kinase profiling compilation of Christmann-Franck et al. (2016).

Tests used:
Test in all cases: radiometric filter-binding kinase assay
[1] = test system: AKT1 (human), P31749 [S473D]
[2] = target: AURKA (human) (UniProt O14965)
[3] = target: BRSK1 (human) (UniProt Q8TDC3)
[4] = target: BRSK2 (human) (UniProt Q8IWQ3)
[5] = target: BTK (human) (UniProt Q06187)
[6] = target: CaMK1 (human) (UniProt Q14012)
[7] = target: DYRK2 (human) (UniProt Q92630)
[8] = target: DYRK3 (human) (UniProt O43781)
[9] = target: EPHA2 (human) (UniProt P29317)
[10] = target: EPHB1 (human) (UniProt P54762)
[11] = target: EPHB2 (human) (UniProt P29323)
[12] = target: EPHB4 (human) (UniProt P54760)
[13] = target: FLT1 (human) (UniProt P17948)
[14] = target: GCK (human) (UniProt Q12851)
[15] = target: HIPK1 (human) (UniProt Q86Z02)
[16] = target: HIPK2 (human) (UniProt Q9H2X6)
HIPK2 (human), sequence (Q9H2X6 whole entry, looked up): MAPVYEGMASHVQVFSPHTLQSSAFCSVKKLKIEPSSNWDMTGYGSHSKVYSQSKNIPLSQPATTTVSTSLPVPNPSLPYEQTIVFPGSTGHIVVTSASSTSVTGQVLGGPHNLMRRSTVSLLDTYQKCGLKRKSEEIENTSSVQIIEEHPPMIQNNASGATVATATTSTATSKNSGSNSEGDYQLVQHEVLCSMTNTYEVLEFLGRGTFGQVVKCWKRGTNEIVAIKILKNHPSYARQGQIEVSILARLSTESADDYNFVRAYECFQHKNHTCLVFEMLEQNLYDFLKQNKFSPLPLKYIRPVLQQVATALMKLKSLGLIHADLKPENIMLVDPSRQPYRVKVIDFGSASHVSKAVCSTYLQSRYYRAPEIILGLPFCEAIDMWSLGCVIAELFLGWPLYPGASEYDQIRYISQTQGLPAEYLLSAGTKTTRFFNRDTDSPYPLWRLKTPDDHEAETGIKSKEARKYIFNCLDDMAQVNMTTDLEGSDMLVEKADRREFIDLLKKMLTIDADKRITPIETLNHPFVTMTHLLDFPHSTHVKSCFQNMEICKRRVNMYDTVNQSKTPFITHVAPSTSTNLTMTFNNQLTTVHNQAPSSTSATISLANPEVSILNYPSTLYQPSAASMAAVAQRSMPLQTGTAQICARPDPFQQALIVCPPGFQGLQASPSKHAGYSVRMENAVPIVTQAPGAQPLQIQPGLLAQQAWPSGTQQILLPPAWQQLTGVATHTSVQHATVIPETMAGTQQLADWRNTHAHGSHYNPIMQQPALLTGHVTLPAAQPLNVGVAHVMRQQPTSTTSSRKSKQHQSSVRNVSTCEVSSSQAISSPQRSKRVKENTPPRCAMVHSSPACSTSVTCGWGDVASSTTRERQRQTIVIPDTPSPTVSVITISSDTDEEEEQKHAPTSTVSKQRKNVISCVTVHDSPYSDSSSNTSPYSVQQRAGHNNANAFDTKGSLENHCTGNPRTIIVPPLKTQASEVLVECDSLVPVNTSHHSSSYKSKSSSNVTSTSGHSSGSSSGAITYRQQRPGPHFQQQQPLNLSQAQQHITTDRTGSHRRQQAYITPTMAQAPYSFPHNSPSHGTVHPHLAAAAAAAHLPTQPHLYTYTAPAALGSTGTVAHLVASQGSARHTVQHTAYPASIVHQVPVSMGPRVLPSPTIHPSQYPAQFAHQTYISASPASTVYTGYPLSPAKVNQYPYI

[17] = target: INSR (human) (UniProt P06213)
[18] = target: JAK2 JH1 JH2 (human) (UniProt O60674)
JAK2 JH1 JH2 (human), sequence (O60674 whole entry, looked up): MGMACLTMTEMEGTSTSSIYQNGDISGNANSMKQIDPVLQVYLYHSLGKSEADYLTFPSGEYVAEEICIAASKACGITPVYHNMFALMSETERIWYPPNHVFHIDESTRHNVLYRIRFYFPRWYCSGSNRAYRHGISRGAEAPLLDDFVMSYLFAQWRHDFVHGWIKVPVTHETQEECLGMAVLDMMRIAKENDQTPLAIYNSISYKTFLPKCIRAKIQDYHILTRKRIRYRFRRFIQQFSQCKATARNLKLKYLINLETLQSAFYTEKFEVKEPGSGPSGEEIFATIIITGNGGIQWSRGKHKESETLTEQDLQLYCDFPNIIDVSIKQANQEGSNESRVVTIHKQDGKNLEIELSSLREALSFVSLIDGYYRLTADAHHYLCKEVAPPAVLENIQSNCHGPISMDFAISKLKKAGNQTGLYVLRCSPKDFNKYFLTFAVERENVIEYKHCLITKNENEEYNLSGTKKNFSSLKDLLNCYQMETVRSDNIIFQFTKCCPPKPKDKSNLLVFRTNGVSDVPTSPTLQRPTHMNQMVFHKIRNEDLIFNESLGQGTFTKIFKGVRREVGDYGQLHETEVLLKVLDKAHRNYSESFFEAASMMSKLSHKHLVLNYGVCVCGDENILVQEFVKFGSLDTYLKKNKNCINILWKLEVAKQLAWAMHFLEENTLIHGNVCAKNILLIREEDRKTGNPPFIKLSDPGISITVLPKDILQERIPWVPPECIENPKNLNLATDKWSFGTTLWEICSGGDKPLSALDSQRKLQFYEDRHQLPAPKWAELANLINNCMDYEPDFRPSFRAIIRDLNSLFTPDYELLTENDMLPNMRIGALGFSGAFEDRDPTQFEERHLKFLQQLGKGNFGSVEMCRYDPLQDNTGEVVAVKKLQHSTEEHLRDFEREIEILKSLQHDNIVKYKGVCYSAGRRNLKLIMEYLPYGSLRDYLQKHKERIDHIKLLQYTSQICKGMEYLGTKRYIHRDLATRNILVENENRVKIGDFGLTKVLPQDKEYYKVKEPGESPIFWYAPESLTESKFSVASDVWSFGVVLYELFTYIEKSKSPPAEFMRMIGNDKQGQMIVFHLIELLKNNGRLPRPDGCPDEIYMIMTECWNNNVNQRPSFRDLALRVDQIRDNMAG

[19] = target: MAP2K1 (human) (UniProt Q02750)
[20] = target: MAP3K1 (human) (UniProt Q13233)
[21] = target: MAP3K11 (human) (UniProt Q16584)
[22] = target: MAP3K5 (human) (UniProt Q99683)
[23] = target: MAPK10 (human) (UniProt P53779)
[24] = target: MAPK11 (human) (UniProt Q15759)
[25] = target: MAPK8 (human) (UniProt P45983)
[26] = target: MAPK9 (human) (UniProt P45984)
[27] = target: MAPKAPK5 (human) (UniProt Q8IW41)
[28] = target: MARK3 (human) (UniProt P27448)
[29] = target: PIM1 (human) (UniProt P11309)
[30] = target: PRKCA (human) (UniProt P17252)
[31] = test system: RPS6KB1 (human), P23443 [T412E]
[32] = target: STK3 (human) (UniProt Q13188)
[33] = target: SYK (human) (UniProt P43405)
[34] = target: TAOK1 (human) (UniProt Q7L7X3)
TAOK1 (human), sequence (Q7L7X3 whole entry, looked up): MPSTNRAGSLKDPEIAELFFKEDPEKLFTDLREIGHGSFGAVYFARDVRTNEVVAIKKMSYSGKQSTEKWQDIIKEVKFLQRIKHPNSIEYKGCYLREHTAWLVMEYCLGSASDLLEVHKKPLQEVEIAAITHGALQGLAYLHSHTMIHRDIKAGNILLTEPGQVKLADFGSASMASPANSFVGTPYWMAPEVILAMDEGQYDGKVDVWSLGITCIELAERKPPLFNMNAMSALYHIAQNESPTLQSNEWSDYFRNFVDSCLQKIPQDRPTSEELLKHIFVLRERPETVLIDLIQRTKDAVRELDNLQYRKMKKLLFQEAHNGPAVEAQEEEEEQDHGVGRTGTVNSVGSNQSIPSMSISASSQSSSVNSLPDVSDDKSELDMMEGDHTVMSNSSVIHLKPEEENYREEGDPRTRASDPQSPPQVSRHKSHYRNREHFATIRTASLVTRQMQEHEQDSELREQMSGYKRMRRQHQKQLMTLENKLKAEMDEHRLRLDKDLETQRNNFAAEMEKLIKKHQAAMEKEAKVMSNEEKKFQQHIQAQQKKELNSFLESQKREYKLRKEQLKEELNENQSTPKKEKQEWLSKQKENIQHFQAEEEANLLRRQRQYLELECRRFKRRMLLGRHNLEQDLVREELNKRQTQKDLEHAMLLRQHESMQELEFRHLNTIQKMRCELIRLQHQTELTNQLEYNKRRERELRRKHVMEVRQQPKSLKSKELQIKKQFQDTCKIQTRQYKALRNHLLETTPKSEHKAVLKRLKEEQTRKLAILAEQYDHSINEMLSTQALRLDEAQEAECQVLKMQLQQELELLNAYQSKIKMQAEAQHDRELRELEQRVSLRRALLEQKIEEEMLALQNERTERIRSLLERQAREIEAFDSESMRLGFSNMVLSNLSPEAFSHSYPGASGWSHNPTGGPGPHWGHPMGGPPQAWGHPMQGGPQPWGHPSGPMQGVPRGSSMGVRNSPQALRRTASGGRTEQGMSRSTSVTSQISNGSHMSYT

[35] = target: TBK1 (human) (UniProt Q9UHD2)
TBK1 (human), sequence (Q9UHD2 whole entry, looked up): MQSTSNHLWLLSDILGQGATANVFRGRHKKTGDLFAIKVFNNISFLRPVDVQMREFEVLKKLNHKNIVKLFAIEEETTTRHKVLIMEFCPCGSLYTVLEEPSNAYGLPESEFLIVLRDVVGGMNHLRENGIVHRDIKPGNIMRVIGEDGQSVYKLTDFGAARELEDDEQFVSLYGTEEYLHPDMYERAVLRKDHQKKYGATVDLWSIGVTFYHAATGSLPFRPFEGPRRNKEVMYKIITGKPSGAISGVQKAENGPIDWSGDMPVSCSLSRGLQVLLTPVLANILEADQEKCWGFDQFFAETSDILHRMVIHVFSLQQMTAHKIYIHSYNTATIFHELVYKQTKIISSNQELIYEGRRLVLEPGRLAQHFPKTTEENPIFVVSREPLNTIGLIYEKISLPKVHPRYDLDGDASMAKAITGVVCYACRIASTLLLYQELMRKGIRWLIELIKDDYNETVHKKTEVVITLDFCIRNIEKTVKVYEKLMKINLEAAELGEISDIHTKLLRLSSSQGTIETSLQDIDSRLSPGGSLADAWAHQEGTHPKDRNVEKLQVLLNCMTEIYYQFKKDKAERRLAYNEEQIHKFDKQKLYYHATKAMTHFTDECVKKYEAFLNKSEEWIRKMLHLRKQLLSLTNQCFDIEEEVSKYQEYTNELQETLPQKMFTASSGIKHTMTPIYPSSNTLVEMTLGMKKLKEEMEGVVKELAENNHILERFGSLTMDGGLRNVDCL

[36] = target: YES1 (human) (UniProt P07947)

BTK (human), sequence (Q06187 whole entry, looked up): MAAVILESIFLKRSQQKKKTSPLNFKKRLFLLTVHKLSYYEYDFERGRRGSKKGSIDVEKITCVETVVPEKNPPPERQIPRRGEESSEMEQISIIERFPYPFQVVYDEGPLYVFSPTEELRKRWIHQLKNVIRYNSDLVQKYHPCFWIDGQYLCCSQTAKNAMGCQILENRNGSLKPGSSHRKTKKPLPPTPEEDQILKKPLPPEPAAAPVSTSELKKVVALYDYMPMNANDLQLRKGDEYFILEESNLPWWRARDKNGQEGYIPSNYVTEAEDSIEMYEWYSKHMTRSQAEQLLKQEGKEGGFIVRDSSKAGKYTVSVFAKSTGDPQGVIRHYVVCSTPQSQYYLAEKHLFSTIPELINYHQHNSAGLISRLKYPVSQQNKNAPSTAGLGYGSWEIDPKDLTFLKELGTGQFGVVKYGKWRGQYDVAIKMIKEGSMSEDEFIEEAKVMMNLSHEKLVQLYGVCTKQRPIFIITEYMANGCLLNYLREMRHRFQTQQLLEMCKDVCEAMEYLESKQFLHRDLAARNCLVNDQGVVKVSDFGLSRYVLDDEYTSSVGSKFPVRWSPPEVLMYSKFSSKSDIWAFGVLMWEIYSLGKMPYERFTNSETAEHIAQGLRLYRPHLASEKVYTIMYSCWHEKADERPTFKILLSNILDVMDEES
CaMK1 (human), sequence (Q14012 whole entry, looked up): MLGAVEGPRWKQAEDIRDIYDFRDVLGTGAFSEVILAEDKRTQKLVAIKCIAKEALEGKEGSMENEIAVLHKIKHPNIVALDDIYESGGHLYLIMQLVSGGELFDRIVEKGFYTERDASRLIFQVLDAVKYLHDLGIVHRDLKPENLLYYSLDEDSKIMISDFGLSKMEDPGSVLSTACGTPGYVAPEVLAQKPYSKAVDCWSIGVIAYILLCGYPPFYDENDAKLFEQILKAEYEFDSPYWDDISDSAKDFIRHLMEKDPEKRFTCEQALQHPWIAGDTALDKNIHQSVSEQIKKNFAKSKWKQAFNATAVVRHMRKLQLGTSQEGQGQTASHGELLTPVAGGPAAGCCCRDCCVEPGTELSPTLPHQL

## CCn1c(-c2nonc2N)nc2cncc(CNC3CCNCC3)c21
[1]; compound 0.1 µM
  residual activity: 48%
[1]; compound 1.0 µM
  residual activity: 16%
[1]; compound 10.0 µM
  residual activity: 4%
[2]; compound 0.1 µM
  residual activity: 91%
[2]; compound 1.0 µM
  residual activity: 95%
[2]; compound 10.0 µM
  residual activity: 103%
[3]; compound 0.1 µM
  residual activity: 91%
[3]; compound 1.0 µM
  residual activity: 81%
[3]; compound 10.0 µM
  residual activity: 41%
[4]; compound 0.1 µM
  residual activity: 96%
[4]; compound 1.0 µM
  residual activity: 89%
[4]; compound 10.0 µM
  residual activity: 41%
[5]; compound 0.1 µM
  residual activity: 92%
[5]; compound 1.0 µM
  residual activity: 93%
[5]; compound 10.0 µM
  residual activity: 112%
[6]; compound 0.1 µM
  residual activity: 119%
[6]; compound 1.0 µM
  residual activity: 109%
[6]; compound 10.0 µM
  residual activity: 109%
[7]; compound 0.1 µM
  residual activity: 87%
[7]; compound 1.0 µM
  residual activity: 89%
[7]; compound 10.0 µM
  residual activity: 53%
[8]; compound 0.1 µM
  residual activity: 107%
[8]; compound 1.0 µM
  residual activity: 93%
[8]; compound 10.0 µM
  residual activity: 72%
[9]; compound 0.1 µM
  residual activity: 119%
[9]; compound 1.0 µM
  residual activity: 114%
[9]; compound 10.0 µM
  residual activity: 103%
[10]; compound 0.1 µM
  residual activity: 92%
[10]; compound 1.0 µM
  residual activity: 99%
[10]; compound 10.0 µM
  residual activity: 82%
[11]; compound 0.1 µM
  residual activity: 115%
[11]; compound 1.0 µM
  residual activity: 91%
[11]; compound 10.0 µM
  residual activity: 87%
[12]; compound 0.1 µM
  residual activity: 105%
[12]; compound 1.0 µM
  residual activity: 105%
[12]; compound 10.0 µM
  residual activity: 94%
[13]; compound 0.1 µM
  residual activity: 103%
[13]; compound 1.0 µM
  residual activity: 105%
[13]; compound 10.0 µM
  residual activity: 83%
[14]; compound 0.1 µM
  residual activity: 91%
[14]; compound 1.0 µM
  residual activity: 94%
[14]; compound 10.0 µM
  residual activity: 71%
[15]; compound 0.1 µM
  residual activity: 107%
[15]; compound 1.0 µM
  residual activity: 107%
[15]; compound 10.0 µM
  residual activity: 84%
[16]; compound 0.1 µM
  residual activity: 112%
[16]; compound 1.0 µM
  residual activity: 82%
[16]; compound 10.0 µM
  residual activity: 43%
[17]; compound 0.1 µM
  residual activity: 99%
[17]; compound 1.0 µM
  residual activity: 99%
[17]; compound 10.0 µM
  residual activity: 99%
[18]; compound 0.1 µM
  residual activity: 108%
[18]; compound 1.0 µM
  residual activity: 103%
[18]; compound 10.0 µM
  residual activity: 110%
[19]; compound 0.1 µM
  residual activity: 85%
[19]; compound 1.0 µM
  residual activity: 103%
[19]; compound 10.0 µM
  residual activity: 78%
[20]; compound 0.1 µM
  residual activity: 94%
[20]; compound 1.0 µM
  residual activity: 93%
[20]; compound 10.0 µM
  residual activity: 112%
[21]; compound 1.0 µM
  residual activity: 111%
[21]; compound 10.0 µM
  residual activity: 89%
[22]; compound 0.1 µM
  residual activity: 100%
[22]; compound 1.0 µM
  residual activity: 97%
[22]; compound 10.0 µM
  residual activity: 97%
[23]; compound 0.1 µM
  residual activity: 97%
[23]; compound 10.0 µM
  residual activity: 95%
[24]; compound 0.1 µM
  residual activity: 102%
[24]; compound 1.0 µM
  residual activity: 96%
[24]; compound 10.0 µM
  residual activity: 89%
[25]; compound 0.1 µM
  residual activity: 112%
[25]; compound 1.0 µM
  residual activity: 105%
[25]; compound 10.0 µM
  residual activity: 101%
[26]; compound 0.1 µM
  residual activity: 109%
[26]; compound 1.0 µM
  residual activity: 103%
[26]; compound 10.0 µM
  residual activity: 95%
[27]; compound 0.1 µM
  residual activity: 94%
[27]; compound 1.0 µM
  residual activity: 95%
[27]; compound 10.0 µM
  residual activity: 96%
[28]; compound 0.1 µM
  residual activity: 88%
[28]; compound 1.0 µM
  residual activity: 87%
[28]; compound 10.0 µM
  residual activity: 56%
[29]; compound 0.1 µM
  residual activity: 94%
[29]; compound 1.0 µM
  residual activity: 35%
[29]; compound 10.0 µM
  residual activity: 7%
[30]; compound 0.1 µM
  residual activity: 84%
[30]; compound 1.0 µM
  residual activity: 70%
[30]; compound 10.0 µM
  residual activity: 30%
[31]; compound 0.1 µM
  residual activity: 16%
[31]; compound 1.0 µM
  residual activity: 5%
[31]; compound 10.0 µM
  residual activity: 4%
[32]; compound 0.1 µM
  residual activity: 106%
[32]; compound 1.0 µM
  residual activity: 97%
[32]; compound 10.0 µM
  residual activity: 71%
[33]; compound 0.1 µM
  residual activity: 106%
[33]; compound 1.0 µM
  residual activity: 101%
[33]; compound 10.0 µM
  residual activity: 79%
[34]; compound 0.1 µM
  residual activity: 100%
[34]; compound 1.0 µM
  residual activity: 108%
[34]; compound 10.0 µM
  residual activity: 104%
[35]; compound 0.1 µM
  residual activity: 88%
[35]; compound 1.0 µM
  residual activity: 93%
[35]; compound 10.0 µM
  residual activity: 78%
[36]; compound 0.1 µM
  residual activity: 108%
[36]; compound 1.0 µM
  residual activity: 98%
[36]; compound 10.0 µM
  residual activity: 86%
